The results in this text go back to US4166113A, “Cardiotonic agent” (University of Hawaii, priority 1978, dated 1979).

One data set is described as follows: Isoelectric focusing. The data set is classed as physicochemical. From the text: For the purpose of obtaining electrophoretic and amino acid analysis the anthopleurin-B obtained in Example 1, below, was rechromatographed on CM Sephadex C-25, Sephadex G-50 and G-10 according to the process set forth in Example 1, Steps c, d and e, respectively. The doubly purified material was subject to electrophoretic analysis using commercially available pre-cast 12% acrylamide gels and matched buffer systems obtained from Bio.Rad Laboratories, 32nd and Griffin, Richmond, California.
Isoelectric focusing gave the isoelectric point at a pH=9.05. Disc gel electrophoresis with 12% polyacrylamide gel at pH 3.6 gave an Rf value of 0.64 versus methyl green tracking dye. […] Sodium dodecyl sulfate (SDS) disc gel electrophoresis using a 10% gel indicated a m.w. of about 5,200 after incubation with dithioerythritol, using RNase A and pancreatic trypsin inhibitor (PTI) for comparison. The molecular weight is so low that these values are only approximate. […] Acid hydrolysis indicated the approximate following amino acid composition: (Asp or Asn)5, Thr1 Ser4, (Glu or Gln)1, Pro5, Gly7, Ala2, (Cys/2)6 Val1, Ile2, Leu2, Tyr1, Phe1, Lys3, His2, Arg2, Trp2.

Data set [1] is described as follows: Solubility in deionized water. The data set is classed as physicochemical.
For the next data set, the system named is isolated rat atria. Briefly: Bioassay for positive inotropic effect on isolated rat atria. In kind it is cell-based. From the text: The sea anemones are homogenized and extracted with water or with a solution of water and a water miscible organic solvent. The crude extract, containing anthopleurin-B, is subjected to gel filtration to give a forty-fold increase in purity of anthopleurin-B. Alternatively, semipermeable membranes may be used to accomplish the results obtained by gel filtration. Cation exchange chromatography provides an excellent separation of anthopleurin-B in a purity of about 30-40% depending on the particular collection of anemones. […] To obtain analytically pure salt-free material the above material is further purified by gel filtration, cation-exchange chromatography and gel adsorption chromatography. All the separation procedures in the present invention are monitored by bioassay using the isolated rat atria for determination of positive inotropic effect using the procedure described in the section headed Bioassay.
Bioassays of the solutions containing anthopleurin-B are performed on isolated atria of rat hearts. […]
The spontaneously beating atrial preparation is connected by a thin silk thread to a force-displacement transducer (Grass Model FT.03), and the contractile movements are recorded on a six-channel polygraph Grass Model 7. […]

Another data set in a line: Stability (pH, storage). In kind it is physicochemical.

Turning to anthopleurin-B [AP-B], the isoelectric point in “Isoelectric focusing” was 9.05 pH. Besides, in data set [1], the solubility entry is reported as “very soluble”. In the data set on isolated rat atria (as potent as ouabain), the “potency in positive inotropic effect relative to ouabain” value is listed as 200-1000 x. For the same substance, the chronotropic effect result in the data set on isolated rat atria (isolated rat atria, beat rate) is “does not show any chronotropic effect”. In “Stability (pH, storage)” (-20° C. for a year, as lyophilized fraction C or fraction G), the storage stability result is listed as “no signs of deterioration”. Besides, the “stability versus pH” value in the data set “Stability (pH, storage)” (neutral and lower pH values) is listed as “relatively stable”. Moreover, the “stability of dry form” value in “Stability (pH, storage)” (sterile powdered lyophilized, room temperature) is “stable at room temperature”.
